Results as given in ChEMBL document CHEMBL1136946, “The regulation of inflammatory cytokine secretion in macrophage cell line by the chemical constituents of Rhus sylvestris” (Bioorg Med Chem Lett, 2009).
Active and inactive are the calls of the source. The rule behind the calls is not given here.

Legend:
[1] = system: MCF7; assay: Cytotoxicity against human MCF7 cells by MTT assay; format: functional, cell-based
[2] = system: SK-MEL-1; assay: Cytotoxicity against human SK-MEL-1 cells by MTT assay; format: functional, cell-based
[3] = system: HeLa; assay: Cytotoxicity against human HeLa cells by MTT assay; format: functional, cell-based
[4] = system: RAW264.7; assay: Antiinflammatory activity in mouse RAW264.7 cells assessed as inhibition LPS-induced IL6 secretion at 1 uM after 12 hrs; format: functional; conditions: for inhibition at 1 µM: RAW264.7, 12 h
[5] = system: RAW264.7; assay: Antiinflammatory activity in mouse RAW264.7 cells assessed as inhibition LPS-induced TNFalpha secretion at 0.01 uM after 12 hrs; format: functional; conditions: RAW264.7, 12 h
[6] = system: RAW264.7; assay: Antiinflammatory activity in mouse RAW264.7 cells assessed as inhibition LPS-induced TNFalpha secretion at 1 uM after 12 hrs; format: functional; conditions: RAW264.7, 12 h

Compound | IC50 [1] [µM] | IC50 [2] [µM] | IC50 [3] [µM] | inhibition at 1 µM [4] [%] | inhibition at 0.01 µM [5] [%] | Activity [4] | inhibition at 1 µM [6] [%]
C=C(C)[C@@H]1CC[C@]2(C)CC[C@]3(C)[C@H](CC[C@@H]4[C@@]5(C)CC[C@H](O)C(C)(C)[C@@H]5CC[C@]43C)[C@@H]12 [LUPEOL] | > 50 | > 50 | > 50 |  |  |  | 
CC[C@H](CC[C@@H](C)[C@H]1CC[C@H]2[C@@H]3CC=C4C[C@@H](O)CC[C@]4(C)[C@H]3CC[C@]12C)C(C)C [BETA-SITOSTEROL] | 42.1 | > 50 | 46.2 | 54.5 | 20.9 |  | 
CC(C)=CCC[C@@H](C)[C@H]1CC[C@@]2(C)[C@H]3CC[C@H]4C(C)(C)C(=O)CC[C@@]45C[C@@]35CC[C@]12C | > 50 | > 50 | > 50 |  |  | inactive | 15.2
CC(=O)O[C@H]1CC[C@]2(C)[C@H]3CC=C4[C@@H]5CC(C)(C)CC[C@]5(C)CC[C@@]4(C)[C@]3(C)CC[C@H]2C1(C)C [beta-AMYRIN ACETATE] | 26.7 | > 50 | > 50 |  | 20.9 | inactive | 
CC1(C)CC[C@]2(C)CC[C@]3(C)C(=CC[C@@H]4[C@@]5(C)CC[C@H](O)C(C)(C)[C@@H]5CC[C@]43C)[C@@H]2C1 [beta-AMYRIN] | > 50 | > 50 | > 50 |  |  |  | 
CC1(C)CC[C@]2(C)CC[C@]3(C)[C@H]4CC=C5[C@@H](CC[C@H](O)C5(C)C)[C@]4(C)CC[C@@]3(C)[C@@H]2C1 [GLUTINOL] | > 50 | > 50 | > 50 |  | 20.9 | inactive | 
C=C(C)C(O)CC[C@@H](C)[C@H]1CC[C@@]2(C)[C@H]3CC[C@H]4C(C)(C)C(=O)CC[C@@]45C[C@@]35CC[C@]12C (stereo not given in full) | > 50 | > 50 | > 50 | 54.6 | 20.9 |  | 
C=C(C)C(=O)CC[C@@H](C)[C@H]1CC[C@@]2(C)[C@H]3CC[C@H]4C(C)(C)C(=O)CC[C@@]45C[C@@]35CC[C@]12C | 30.9 | 15.9 | 24.8 |  | 20.9 | inactive | 
COc1ccc(/C=C/C(=O)c2ccc(OC)cc2O)cc1 | 45.4 | 41.7 | > 50 |  | 20.9 | inactive | 
CC(C)=CCC[C@@H](C)[C@H]1CC[C@@]2(C)[C@@H]3CC=C4[C@@H](CC[C@H](O)C4(C)C)[C@]3(C)CC[C@]12C | > 50 | > 50 | > 50 |  |  |  | 80.9
